Results from PubChem BioAssay (NCI).
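Dose response: 5 concentrations. Exposure: 48 h. Format: 96-well plates. Endpoint: linear interpolation; highest concentration if not reached. GI50 is the concentration that inhibits growth by half. At the TGI there is no net growth.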

What was measured:
Assay in all cases: growth of human tumour cells (NCI), 48 h
SNB-75 CNS = tested on: SNB-75 CNS
OVCAR-8 ovarian = tested on: OVCAR-8 ovarian
HOP-62 NSCLC = tested on: HOP-62 NSCLC
MCF7 breast = tested on: MCF7 breast
SK-MEL-5 melanoma = tested on: SK-MEL-5 melanoma
NCI-H460 lung = tested on: NCI-H460 lung
ACHN renal = tested on: ACHN renal
HCC-2998 colon = tested on: HCC-2998 colon
HCT-15 colon = tested on: HCT-15 colon
HS 578T breast = tested on: HS 578T breast
UACC-257 melanoma = tested on: UACC-257 melanoma
NCI-H226 lung = tested on: NCI-H226 lung
TK-10 renal = tested on: TK-10 renal
SF-295 CNS = tested on: SF-295 CNS
U251 CNS = tested on: U251 CNS
CAKI-1 renal = tested on: CAKI-1 renal
OVCAR-5 ovarian = tested on: OVCAR-5 ovarian
NCI-H23 lung = tested on: NCI-H23 lung
SF-268 CNS = tested on: SF-268 CNS
BT-549 breast = tested on: BT-549 breast
MDA-MB-435 = tested on: MDA-MB-435
HCT-116 colon = tested on: HCT-116 colon
SF-539 CNS = tested on: SF-539 CNS
COLO 205 colon = tested on: COLO 205 colon
HT29 colon = tested on: HT29 colon
IGROV1 ovarian = tested on: IGROV1 ovarian
786-0 renal = tested on: 786-0 renal
EKVX NSCLC = tested on: EKVX NSCLC
NCI/ADR-RES ovarian = tested on: NCI/ADR-RES ovarian
RXF 393 renal = tested on: RXF 393 renal
LOX IMVI melanoma = tested on: LOX IMVI melanoma
UO-31 renal = tested on: UO-31 renal
SK-MEL-2 melanoma = tested on: SK-MEL-2 melanoma
MALME-3M melanoma = tested on: MALME-3M melanoma
SW-620 colon = tested on: SW-620 colon
NCI-H522 lung = tested on: NCI-H522 lung
SN12C renal = tested on: SN12C renal
PC-3 prostate = tested on: PC-3 prostate
T-47D breast = tested on: T-47D breast
SK-OV-3 ovarian = tested on: SK-OV-3 ovarian
OVCAR-3 ovarian = tested on: OVCAR-3 ovarian
M14 melanoma = tested on: M14 melanoma
HOP-92 NSCLC = tested on: HOP-92 NSCLC
A498 renal = tested on: A498 renal
KM12 colon = tested on: KM12 colon
SK-MEL-28 melanoma = tested on: SK-MEL-28 melanoma
A549 NSCLC = tested on: A549 NSCLC
OVCAR-4 ovarian = tested on: OVCAR-4 ovarian
UACC-62 melanoma = tested on: UACC-62 melanoma
SNB-19 CNS = tested on: SNB-19 CNS
RPMI-8226 leukemia = tested on: RPMI-8226 leukemia
DU-145 prostate = tested on: DU-145 prostate
MDA-MB-231 breast = tested on: MDA-MB-231 breast
MOLT-4 leukemia = tested on: MOLT-4 leukemia
CCRF-CEM leukemia = tested on: CCRF-CEM leukemia
K-562 leukemia = tested on: K-562 leukemia
HL-60(TB) leukemia = tested on: HL-60(TB) leukemia
SR leukemia = tested on: SR leukemia

## CCCCCCCCCCSC(=N)N
SNB-75 CNS
  GI50: 1.79 µM
  TGI: 4.44 µM
OVCAR-8 ovarian
  GI50: 4.17 µM
  TGI: 19.2 µM
HOP-62 NSCLC
  GI50: 3.36 µM
  TGI: 10.3 µM
MCF7 breast
  GI50: 2.19 µM
  TGI: 6.03 µM
SK-MEL-5 melanoma
  GI50: 2.12 µM
  TGI: 4.71 µM
NCI-H460 lung
  GI50: 2.02 µM
  TGI: 4.68 µM
ACHN renal
  GI50: 2.82 µM
  TGI: 9.33 µM
HCC-2998 colon
  GI50: 1.72 µM
  TGI: 3.31 µM
HCT-15 colon
  GI50: 2.01 µM
  TGI: 4.73 µM
HS 578T breast
  GI50: 2.93 µM
  TGI: 12.5 µM
UACC-257 melanoma
  GI50: 2.51 µM
  TGI: 6.32 µM
NCI-H226 lung
  GI50: 6.09 µM
  TGI: 23.2 µM
TK-10 renal
  GI50: 1.61 µM
  TGI: 4.09 µM
SF-295 CNS
  GI50: 1.72 µM
  TGI: 3.51 µM
U251 CNS
  GI50: 2.37 µM
  TGI: 6.72 µM
CAKI-1 renal
  GI50: 1.75 µM
  TGI: 5.26 µM
OVCAR-5 ovarian
  GI50: 9.84 µM
  TGI: 23.5 µM
NCI-H23 lung
  GI50: 6.38 µM
  TGI: 21.3 µM
SF-268 CNS
  GI50: 4.2 µM
  TGI: 17 µM
BT-549 breast
  GI50: 11.3 µM
  TGI: 24.6 µM
MDA-MB-435
  GI50: 1.77 µM
  TGI: 4.01 µM
HCT-116 colon
  GI50: 2.96 µM
  TGI: 10.1 µM
SF-539 CNS
  GI50: 10.2 µM
  TGI: 22.1 µM
COLO 205 colon
  GI50: 1.55 µM
  TGI: 2.91 µM
HT29 colon
  GI50: 1.42 µM
  TGI: 2.84 µM
IGROV1 ovarian
  GI50: 2.85 µM
  TGI: 13.3 µM
786-0 renal
  GI50: 4.92 µM
  TGI: 19.5 µM
EKVX NSCLC
  GI50: 10.3 µM
  TGI: 25.3 µM
NCI/ADR-RES ovarian
  GI50: 4.8 µM
  TGI: 22.3 µM
RXF 393 renal
  GI50: 5.1 µM
  TGI: 17.6 µM
LOX IMVI melanoma
  GI50: 2.76 µM
  TGI: 9.37 µM
UO-31 renal
  GI50: 2.61 µM
  TGI: 12.4 µM
SK-MEL-2 melanoma
  GI50: 1.68 µM
  TGI: 3.27 µM
MALME-3M melanoma
  GI50: 2.32 µM
  TGI: 6.59 µM
SW-620 colon
  GI50: 1.7 µM
  TGI: 3.52 µM
NCI-H522 lung
  GI50: 1.56 µM
  TGI: 3.47 µM
SN12C renal
  GI50: 5.09 µM
  TGI: 18.4 µM
PC-3 prostate
  GI50: 4.76 µM
  TGI: 17.5 µM
T-47D breast
  GI50: 2.04 µM
  TGI: 4.55 µM
SK-OV-3 ovarian
  GI50: 7.38 µM
  TGI: 19.9 µM
OVCAR-3 ovarian
  GI50: 3.71 µM
  TGI: 13.8 µM
M14 melanoma
  GI50: 1.89 µM
  TGI: 3.57 µM
HOP-92 NSCLC
  GI50: 1.42 µM
  TGI: 4.59 µM
A498 renal
  GI50: 4.69 µM
  TGI: 19.3 µM
KM12 colon
  GI50: 2.45 µM
  TGI: 6.5 µM
SK-MEL-28 melanoma
  GI50: 3.67 µM
  TGI: 14.1 µM
A549 NSCLC
  GI50: 5.59 µM
  TGI: 18.6 µM
OVCAR-4 ovarian
  GI50: 3.58 µM
  TGI: 17.6 µM
UACC-62 melanoma
  GI50: 1.98 µM
  TGI: 4.45 µM
SNB-19 CNS
  GI50: 5.17 µM
  TGI: 19.2 µM
RPMI-8226 leukemia
  GI50: 1.73 µM
  TGI: 4.19 µM
DU-145 prostate
  GI50: 6.63 µM
  TGI: 19.3 µM
MDA-MB-231 breast
  GI50: 2.51 µM
  TGI: 9.15 µM

## Cc1ccc(-c2n[nH]c(=O)c3noc(-c4ccc(C)cc4)c23)cc1
OVCAR-8 ovarian
  GI50: 1.82 µM
  TGI: 27.7 µM
HOP-62 NSCLC
  GI50: 0.835 µM
  TGI: 13.4 µM
MCF7 breast
  GI50: 0.565 µM
  TGI: > 100 µM
MOLT-4 leukemia
  GI50: 1.95 µM
  TGI: > 100 µM
CCRF-CEM leukemia
  GI50: 2.45 µM
  TGI: > 100 µM
SK-MEL-5 melanoma
  GI50: 0.97 µM
  TGI: > 100 µM
NCI-H460 lung
  GI50: 0.751 µM
  TGI: 25 µM
ACHN renal
  GI50: 3.16 µM
  TGI: 73.3 µM
HCC-2998 colon
  GI50: 3.89 µM
  TGI: > 100 µM
HCT-15 colon
  GI50: 0.651 µM
  TGI: > 100 µM
HS 578T breast
  GI50: 1.31 µM
  TGI: 15.9 µM
UACC-257 melanoma
  GI50: 5.87 µM
  TGI: > 100 µM
NCI-H226 lung
  GI50: 6.88 µM
  TGI: > 100 µM
TK-10 renal
  GI50: 2.35 µM
  TGI: 14.2 µM
U251 CNS
  GI50: 0.814 µM
  TGI: 18.8 µM
K-562 leukemia
  GI50: 0.383 µM
  TGI: > 100 µM
CAKI-1 renal
  GI50: 2.27 µM
  TGI: > 100 µM
OVCAR-5 ovarian
  GI50: 5.99 µM
  TGI: > 100 µM
NCI-H23 lung
  GI50: 4.86 µM
  TGI: > 100 µM
SF-268 CNS
  GI50: 2.21 µM
  TGI: 27.7 µM
BT-549 breast
  GI50: 1.33 µM
  TGI: 12.8 µM
MDA-MB-435
  GI50: 0.235 µM
  TGI: 0.651 µM
HCT-116 colon
  GI50: 0.557 µM
  TGI: 75.5 µM
SF-539 CNS
  GI50: 0.787 µM
  TGI: 4.14 µM
COLO 205 colon
  GI50: 0.752 µM
  TGI: 5.05 µM
HT29 colon
  GI50: 0.4 µM
  TGI: 15.8 µM
IGROV1 ovarian
  GI50: 1.89 µM
  TGI: 28.6 µM
786-0 renal
  GI50: 2.78 µM
  TGI: 24.9 µM
HL-60(TB) leukemia
  GI50: 0.31 µM
  TGI: > 100 µM
NCI/ADR-RES ovarian
  GI50: 0.623 µM
  TGI: > 100 µM
RXF 393 renal
  GI50: 0.419 µM
  TGI: 2.08 µM
LOX IMVI melanoma
  GI50: 0.677 µM
  TGI: > 100 µM
UO-31 renal
  GI50: 1.26 µM
  TGI: 44.9 µM
SK-MEL-2 melanoma
  GI50: 0.451 µM
  TGI: 9.49 µM
MALME-3M melanoma
  GI50: 1.09 µM
  TGI: 23.4 µM
SW-620 colon
  GI50: 0.427 µM
  TGI: > 100 µM
NCI-H522 lung
  GI50: 0.411 µM
  TGI: 4.98 µM
SN12C renal
  GI50: 1.4 µM
  TGI: > 100 µM
PC-3 prostate
  GI50: 2.07 µM
  TGI: > 100 µM
T-47D breast
  GI50: 2.41 µM
  TGI: > 100 µM
SK-OV-3 ovarian
  GI50: 1.51 µM
  TGI: 11.5 µM
OVCAR-3 ovarian
  GI50: 1 µM
  TGI: 3.41 µM
M14 melanoma
  GI50: 0.422 µM
  TGI: > 100 µM
SR leukemia
  GI50: 0.441 µM
  TGI: > 100 µM
HOP-92 NSCLC
  GI50: 0.194 µM
  TGI: 0.962 µM
A498 renal
  GI50: 1.27 µM
  TGI: 6.71 µM
KM12 colon
  GI50: 0.713 µM
  TGI: > 100 µM
SK-MEL-28 melanoma
  GI50: 10.2 µM
  TGI: > 100 µM
A549 NSCLC
  GI50: 0.74 µM
  TGI: > 100 µM
OVCAR-4 ovarian
  GI50: 10.1 µM
  TGI: 43.6 µM
UACC-62 melanoma
  GI50: 0.718 µM
  TGI: 56.5 µM
SNB-19 CNS
  GI50: 2.13 µM
  TGI: 42.8 µM
RPMI-8226 leukemia
  GI50: 0.616 µM
  TGI: > 100 µM
DU-145 prostate
  GI50: 2.82 µM
  TGI: 15.2 µM
MDA-MB-231 breast
  GI50: 1.77 µM
  TGI: 39.8 µM
